Test results: patent US10457710B2, “Antimicrobial peptides, their variants and uses” (priority 2015, dated 2019)
Where a SMILES comes first, the peptide text is derived from it. [ ]: non-standard residue; d: D form.

Legend:
[1] = tested on: Escherichia coli (ATCC 25922), Staphylococcus aureus (ATCC 25923), Klebsiella pneumoniae (ATCC 10031) and Pseudomonas aeruginosa (ATCC 27853); experiment: Radial diffusion assay, four ATCC bacterial strains together; assay type: cell-based; details: Gentamicin 5 μg
Experimental: (§1) The radial diffusion assay (RDA) was carried out as described by Andersen et al. (2010). Briefly, 30 ml of 1/10 Muller-Hinton broth (MHB) supplemented with 1% agarose and 5.0×10^5 CFU/ml S. aureus or E. coli or K. pneumoniae, P. aeruginosa cells was poured into a single-well omnitray (Nunc) and overlaid with a TSP 96-well plate. One hundred μg of each synthesized peptide was tested. The peptides were also tested against Fusarium oxysporum and Verticillium dahliae, for which ⅓ potato dextrose agarose was used. To test the synergistic effect of peptides, each peptide was mixed in equimolar concentrations. Mix1 (met1-12), Mix2 (met3, 4 and 5), Mix3 (met 8, 9 and 10), Mix 4 (met11, 12) and Mix5 (8, 9, 10, 11, 12) were prepared and tested against E. coli and S. aureus. Gentamicin and vancomycin were included as positive controls for bacteria and amphotericin B was used as the control for fungi.
By using rational design techniques, we have designed variants of peptides by incorporating or replacing various amino acids in the original peptides. Thus, we have designed and modified Chain 100, Chain 200 and Chain 300 with tryptophan (W), arginine (R) and lysine (K) at various positions to improve antimicrobial activity (FIGS. 4a-c and 5a-c). In some peptides we have also used other amino acids such as Leucine (L), Cysteine (C), Isoleucine (I), Phenylalanine (F) and Alanine (A). […]

[2] = tested on: Klebsiella pneumoniae (ATCC 10031); experiment: Radial diffusion assay (RDA); assay type: cell-based; details: Peptides 50 μg, Gentamycin 5 μg; diameter including the wells
Experimental: as §1, with “One hundred μg of each synthesized peptide was tested.” left out

[3] = tested on: Staphylococcus aureus (ATCC 25923); experiment: Radial diffusion assay (RDA); assay type: cell-based; details: Peptides 50 μg, Gentamycin 5 μg; diameter including the wells
Experimental: as §1, with “One hundred μg of each synthesized peptide was tested.” left out

[4] = tested on: Escherichia coli (ATCC 25922); experiment: Radial diffusion assay (RDA); assay type: cell-based; details: Peptides 50 μg, Gentamycin 5 μg; diameter including the wells
Experimental: as §1, with “One hundred μg of each synthesized peptide was tested.” left out

[5] = tested on: Pseudomonas aeruginosa (ATCC 27853); experiment: Radial diffusion assay (RDA); assay type: cell-based; details: Peptides 50 μg, Gentamycin 5 μg; diameter including the wells
Experimental: as §1, with “One hundred μg of each synthesized peptide was tested.” left out

[6] = tested on: Klebsiella pneumoniae (ATCC 10031); experiment: MIC, micro broth dilution assay; assay type: cell-based
Experimental: (§2) Minimum inhibition concetrations (MICs) were determined against Escherichia coli (ATCC 25922), Staphylococcus aureus (ATCC 25923), Klebsiella pneumoniae (ATCC 10031) and Pseudomonas aeruginosa (ATCC 27853). Also clinical strains of E. coli, K. pneumoniae, E. cloacae, P. aeruginosa, Serratia marcescens, Proteus mirabilis, S. pneumoniae, Acinetobacter baumannii, A. johnsonii and S. aureus were used for MICs assays. Additionally, clinical strains of yeast including Candida albicans, C. glabrata, C. parapsilosis and C. quillermondiae were used. The susceptibility of these microorganisms to Chain peptides were determined using micro broth dilution assay. Colonies of the respective microorganism from Muller Hinton (MH) agar plates incubated overnight were suspended in MH broth media and final concentration of microorganism was adjusted to 5.0×10^5 cfu/ml. An aliquot of 10 μl of each Chain peptide, or gentamicin, tetracycline as reference antibiotics were added in differing concentrations along with 90 μl of bacterial suspension to 96 well polypropylene plates and incubated at 37° C. for 20 to 24 hours. […] Similarly, antifungal MICs were tested in Potato dextrose broth.

[7] = tested on: Staphylococcus aureus (ATCC 25923); experiment: MIC, micro broth dilution assay; assay type: cell-based
Experimental: as §2

[8] = tested on: Escherichia coli (ATCC 25922); experiment: MIC, micro broth dilution assay; assay type: cell-based
Experimental: as §2

[9] = tested on: Pseudomonas aeruginosa (ATCC 27853); experiment: MIC, micro broth dilution assay; assay type: cell-based
Experimental: as §2

MRSA strains = experiment: MIC, synergistic activity with Ertapenem (4 μg/ml); assay type: cell-based, S. aureus; details: Ertapenem 4 μg/ml; D-peptide
Experimental: Peptides Chain 104, Chain 105, Chain 201, Chain 308, Chain 310 were tested against antibiotic-sensitive strains of S. aureus RN4220 and methicillin resistant strains of S. aureus COL (MRSA). Chain peptides comprising of either L- or D-form amino acids were tested against these bacteria, and the D-form peptides were found have better activity compared to L-form (Table 6). Synergistic activity of chain peptides along with Ertapenem (4 μg/ml) was tested to know whether it will influence the activity against MRSA strains. […] Chain 310 has the best antibacterial activity against the MRSA strains with a MIC of 0.06 & 0.03 μg/ml along with Ertapenem (4 μg/ml) for both forms of L and D-peptides (Table 6).

| Molecule | zone of inhibition, four ATCC strains [1] | Inhibition zone, Klebsiella pneumoniae [2] | Inhibition zone, Staphylococcus aureus [3] | Inhibition zone, Escherichia coli [4] | Inhibition zone, Pseudomonas aeruginosa [5] | Minimum inhibitory concentration, Klebsiella pneumoniae (ATCC 10031) [6] | Minimum inhibitory concentration, Staphylococcus aureus (ATCC 25923) [7] | Minimum inhibitory concentration, Escherichia coli (ATCC 25922) [8] | Minimum inhibitory concentration, Pseudomonas aeruginosa (ATCC 27853) [9] | MIC against the MRSA strains along with Ertapenem (MRSA strains) |
| --- | --- | --- | --- | --- | --- | --- | --- | --- | --- | --- |
| Gentamicin [reference compound] | 22-24 mm | 22 mm | 24 mm | 22 mm | 24 mm | 0.25 µg/mL | 0.25 µg/mL | 1 µg/mL | 0.25 µg/mL |  |
| CC(C)C[C@@H](NC(=O)[C@@H](CCCCN)NC(=O)[C@@H](CCCCN)NC(=O)[C@@H](Cc1ccccc1)NC(=O)[C@@H](CC(C)C)NC(=O)[C@@H](Cc1c[nH]c2ccccc12)NC(=O)[C@@H](CCCNC(=N)N)NC(=O)[C@@H](Cc1c[nH]c2ccccc12)NC(=O)[C@@H](CCCCN)NC(=O)[C@@H](CCCNC(=N)N)NC(=O)[C@H](N)CCCCN)C(=O)O [Chain310D] (H-[dK][dR][dK][dW][dR][dW][dL][dF][dK][dK][dL]-OH) |  |  |  |  |  |  |  |  |  | 0.03 µg/mL |
